Counter-ions that a name gives are not always drawn.
How the values were obtained:
[1] = biological target: T1, late hNav1.5 channel current (Homo sapiens, UniProt Q14524); experiment: NaV1.5 (for pimavanserin): late hNav1.5 current, HEK-293, ATX-II activated (CR-CLE); assay type: cell-based
Protocol: (§1) Nonlinear least squares fits were solved with the Solver add-in for Excel 2003 or later (Microsoft, Redmond, WA) and the IC50 was calculated.
0.1 μM ATX-II was omitted from the vehicle control solution used during initial gigaohm seal formation, transition to whole-cell patch clamp configuration and preliminary baseline recording before activation of late Nav1.5 current with 0.1 μM ATX-II. […] Positive Control Article: • Name: Ranolazine dihydrochloride • Source: Tocris • Batch Number: 2A/215231 • Molecular Weight: 509.47 g/mol • Purity: 98.7% • Storage Conditions: Room temperature • Rationale for Selection: Previous results have shown that 100 μM ranolazine dihydrochloride inhibits INa,L by approximately 85% End Blocker • Name: Lidocaine • Source: Sigma-Aldrich • Lot Number: MKBX2132V • Molecular Weight (g/mol): 234.34 • Storage Conditions: Room temperature • Rationale for Selection: Lidocaine is an inhibitor of peak hNav1.5 and late hNav1.5 currents. Each recording will end with application of 2 mM lidocaine to determine the amplitude of endogenous currents. […]
Electrophysiological Procedures: Cells were superfused with vehicle control solution without ATX-II (HB-PS+0.3% DMSO) until after whole-cell configuration was achieved and a stable baseline current was recorded. […]

[2] = as stated by the drug label; cited from earlier work
[3] = biological target: hCav1.2/β2/α2δ channels (Homo sapiens, UniProt Q13936); experiment: CaV1.2 manual patch clamp, CHO cells (CR-CLE); assay type: cell-based; settings: manual patch clamp, room temperature, read-out: CaV 1.2 IC50
Description: Stocks were maintained in cryogenic storage. […] Each culture dish was identified by a notation of channel name, passage number, and date.
Rationale for Selection of Ion Channel and Expression Systems: Reduction of ICa,L is associated with action potential shortening in atrial fibrillation (Van Wagoner, et al., Circ Res 85:428-436 (1999)) while augmentation of ICa,L current may produce action potential prolongation (Ahmmed, et al., Circ Res 86:558-570 (2000)) and early after depolarizations (January, et al., Circ Res 62:563-571 (1988)). ICa.L is produced by the combination of calcium channel subunits encoded by CACNA1C (α1-subunit), CACNB2 (β2-subunit) and CACNA2D1 (α2δ-subunit) cDNAs.
• Organism: Cricetulus griseus • Tissue: Ovary; transfected with human CACNA1C • (α1-subunit), CACNB2 (β2-subunit), and • CACNA2D1 (α2δ-subunit) cDNAs • Morphology: Epithelial • Age/Stage: Adult • Source Strain: ATCC, Manassas, VA • Source Substrain: CR-CLE
CHO Cell Culture Procedures: CHO cells were stably co-transfected with human CACNA1C (α1-subunit), CACNB2 (β2-subunit), and CACNA2D1 (α2δ-subunit) cDNAs. Stable transfectants were selected by coexpression of the cDNAs with antibiotic resistance genes for blasticidin, hygromycin, G418, and zeocin. Selection pressure was maintained by including these antibiotics in the culture medium. Cells were cultured in Ham's F12 Medium supplemented with 10% fetal bovine serum, penicillin-streptomycin (100 units/mL), blasticidin (10 μg/mL), zeocin (400 μg/mL), G418 (250 μg/mL) and hygromycin (250 μg/mL). To avoid Ca^2+-induced toxicity, verapamil (3 μmol/L) was added to the cultured cells.
hCav1.2/β2/α2δ-CHO is a tetracycline-inducible cell line. To induce expression, tetracycline at a final concentration of 1 μg/mL was added to media lacking the selection antibiotics. Currents were recorded greater than 16 hours post-induction.
Treatment Groups: All experiments were performed at room temperature. Each cell acted as its own control.
Each concentration was tested in at least three cells (n≥3).
Positive Control Group: The positive control article nifedipine (Sigma-Aldrich) was tested in two cells (n=2) at 0.1 μM. Previous results have shown that nifedipine at 0.1 μM inhibits hCav1.2 current by approximately 90%.
Electrophysiological Procedures: Cells were superfused with vehicle control solution. Micropipette solution for whole cell patch clamp recordings was composed of (mM): Cs-methanesulfonate (MES), 130; TEA-Cl, 20, MgCl2, 1; EGTA, 10; Mg-ATP, 4; Tris-GTP, 0.3, phosphocreatine di-(Tris) salt, 14, creatine phosphokinase, 50 U/mL, and HEPES, 10; pH adjusted to 7.2 with N-methyl-D-glucamine or CsOH. Micropipette solution was prepared in batches, aliquoted, stored frozen, and a fresh aliquot thawed each day. […] Before digitization, current records were low-pass filtered at one-fifth of the sampling frequency.
Experimental Procedures: Onset and steady inhibition was evaluated at a test potential of 0 mV (150 ms duration), repeated at ten-second intervals from a holding potential of −40 mV. Peak current was measured during the step to 0 mV. Peak current was monitored until a new steady state was achieved. hCav1.2 current was monitored until a new steady state was achieved and a steady state was maintained for at least 20 s before applying test article or positive control article formulations. […]
as §1

[4] = biological target: T1, late hNav1.5 channel current; settings: Oliveira, et al., J. Biol. Chem. 279 (2004); read-out: EC50 for increase of INa,L; cited from earlier work

T1 sequence (Q14524 whole entry): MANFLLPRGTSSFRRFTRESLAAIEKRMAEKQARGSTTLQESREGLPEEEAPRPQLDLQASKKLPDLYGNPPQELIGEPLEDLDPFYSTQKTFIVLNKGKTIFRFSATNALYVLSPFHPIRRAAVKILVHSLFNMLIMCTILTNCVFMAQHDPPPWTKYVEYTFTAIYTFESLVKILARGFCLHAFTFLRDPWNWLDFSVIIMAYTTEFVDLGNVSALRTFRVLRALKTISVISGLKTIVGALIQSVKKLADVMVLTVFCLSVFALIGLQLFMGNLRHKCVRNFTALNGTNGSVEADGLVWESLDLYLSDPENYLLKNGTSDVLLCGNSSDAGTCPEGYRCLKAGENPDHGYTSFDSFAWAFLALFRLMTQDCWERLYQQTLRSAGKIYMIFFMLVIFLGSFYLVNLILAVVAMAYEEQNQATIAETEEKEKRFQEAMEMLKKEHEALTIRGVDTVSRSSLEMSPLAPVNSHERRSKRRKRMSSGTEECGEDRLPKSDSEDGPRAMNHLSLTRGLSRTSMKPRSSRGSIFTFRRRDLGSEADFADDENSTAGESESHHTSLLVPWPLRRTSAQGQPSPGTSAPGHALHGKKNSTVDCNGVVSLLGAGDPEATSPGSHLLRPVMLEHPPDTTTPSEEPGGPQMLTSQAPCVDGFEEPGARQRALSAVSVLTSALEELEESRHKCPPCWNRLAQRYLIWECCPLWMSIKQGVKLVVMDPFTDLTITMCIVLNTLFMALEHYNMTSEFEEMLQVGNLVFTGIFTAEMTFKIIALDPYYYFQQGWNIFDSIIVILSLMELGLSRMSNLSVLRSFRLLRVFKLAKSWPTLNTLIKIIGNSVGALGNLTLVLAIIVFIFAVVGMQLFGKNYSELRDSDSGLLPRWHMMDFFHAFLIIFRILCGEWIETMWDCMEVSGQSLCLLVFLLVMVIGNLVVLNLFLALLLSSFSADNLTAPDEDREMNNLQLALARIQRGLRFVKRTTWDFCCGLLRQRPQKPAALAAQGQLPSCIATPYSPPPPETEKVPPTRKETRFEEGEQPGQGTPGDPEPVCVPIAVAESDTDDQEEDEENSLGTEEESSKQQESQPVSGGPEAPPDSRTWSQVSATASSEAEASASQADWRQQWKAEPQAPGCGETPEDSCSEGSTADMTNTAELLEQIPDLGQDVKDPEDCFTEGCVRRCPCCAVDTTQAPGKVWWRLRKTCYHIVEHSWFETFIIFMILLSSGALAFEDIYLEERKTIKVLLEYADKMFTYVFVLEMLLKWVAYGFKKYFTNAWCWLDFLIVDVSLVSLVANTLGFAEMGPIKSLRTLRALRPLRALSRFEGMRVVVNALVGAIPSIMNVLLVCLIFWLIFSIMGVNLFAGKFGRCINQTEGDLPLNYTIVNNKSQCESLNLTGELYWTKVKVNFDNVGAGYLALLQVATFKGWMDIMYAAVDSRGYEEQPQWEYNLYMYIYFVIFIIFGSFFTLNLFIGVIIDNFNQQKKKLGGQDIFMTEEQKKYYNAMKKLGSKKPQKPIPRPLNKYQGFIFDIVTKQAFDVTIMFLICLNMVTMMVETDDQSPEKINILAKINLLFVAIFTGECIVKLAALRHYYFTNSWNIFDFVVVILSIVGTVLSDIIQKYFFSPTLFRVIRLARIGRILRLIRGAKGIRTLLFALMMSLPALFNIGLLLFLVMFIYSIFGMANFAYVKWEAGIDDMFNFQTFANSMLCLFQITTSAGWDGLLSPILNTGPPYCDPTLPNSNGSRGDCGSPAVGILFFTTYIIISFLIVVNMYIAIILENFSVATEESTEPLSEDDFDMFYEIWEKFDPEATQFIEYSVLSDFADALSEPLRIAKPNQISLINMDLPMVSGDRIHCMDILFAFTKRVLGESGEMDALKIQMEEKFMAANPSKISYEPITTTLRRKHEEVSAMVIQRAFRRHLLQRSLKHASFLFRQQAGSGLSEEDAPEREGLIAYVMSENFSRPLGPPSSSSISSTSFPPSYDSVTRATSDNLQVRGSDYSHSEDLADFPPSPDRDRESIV

## CC(C)COc1ccc(CNC(=O)N(Cc2ccc(F)cc2)C2CCN(C)CC2)cc1 [Pimavanserin]
[1]; read-out: NaV 1.5 IC50
  IC50: 1200 nM
[2]
  effect on QT interval: prolongs the QT interval
[3]
  IC50: 1200 nM

## COc1ccccc1OCC(O)CN1CCN(CC(=O)Nc2c(C)cccc2C)CC1 (centres unmarked) [ranolazine dihydrochloride, Ranolazine dihydrochloride]
[1]; HEK293, 100 μM, positive control, previous results, read-out: inhibition of INa,L
  inhibition at 100 µM: ~85%

## ATX-II: "Late hNav1.5 Current Agonist"; "ATX-II increases INa,L"; Molecular Weight 4935; Source: Alomone Labs
[4]
  EC50: ~4 nM

— patent US12139477B2, “Compounds, salts thereof and methods for treatment of diseases” (ACADIA PHARMACEUTICALS INC., priority 2017, dated 2024)
